This note sets out measurements from patent US9688709B2, “Phosphaplatins and their use for treatment of cancers” (OHIO UNIVERSITY, priority 2010, dated 2017).

Read-outs that look alike come from different tables or passages of the source.

Data set [1] is described as follows: Stability in aqueous solution at neutral pH (31P-NMR). Format: physicochemical. The source says:
Typically, no decomposition is observed within seven days after dissolving the phosphaplatin compounds in water and observing by ^31P-NMR spectroscopy.

Data set [2] has as its system human ovarian cancer A2780 xenograft. Nature of the data set: In vivo efficacy, A2780 mouse xenograft. On the set-up: species or system mice. The method, then:
Stable clonal ovarian cancer cell lines A2780 were grown in cell culture until 80-90% confluency was reached. Trypsin (GIBCO/BRL, Grand Island, N.Y.) was used to detach adherent cells. Trypsinized cells were thoroughly washed with PBS (Phosphate Buffered Saline) to remove trypsin. Efficacy of phosphaplatin compounds were evaluated using human ovarian cancer, A2780 by subcutaneous xenograft in SCID Hairless OutBred, SHO-Prkdc^scidHr^hr, (Charles River Labs, Wilmington, Mass.) mice. Female SCID mice 4 to 5 weeks old were acclimated for one week before initiation of efficacy trials.
Cancer cells were re-suspended in PBS, and all mice except for negative control mice were injected subcutaneously with from 1×10^6 cells/0.10 mL to 5×10^6 cells/0.10 mL in PBS and were evaluated for tumors as a function of time using sterile 26 gauge needles and syringes. The mice were examined daily for tumor growth. Tumors were measured using digital calipers. The tumor volume was calculated by the formula (W^2×L)/2, where W is the tumor measurement at the widest point, and L is the tumor dimension at the longest point, where the volume of the tumor in mm^3 is equivalent to the weight in mg. […]
The xenograft SCID mice were monitored every day for any adverse events in their health by measuring weight loss/gain and food consumption. […]

Data set [3] deals with human ovarian cancer OVCAR-10 xenograft. Nature of the data set: In vivo efficacy, OVCAR-10 mouse xenograft. As to conditions: 40 mg/kg body weight, during the treatment time. On the set-up: species or system mice. The method, then:
Stable human clonal ovarian cancer cell lines OVCAR-10 and head and neck cancer UMSCC10b were grown separately in cell culture until 80-90% confluency was reached. Trypsin (GIBCO/BRL, Grand Island, N.Y.) was used to detach adherent cells. Trypsinized cells were thoroughly washed with PBS (Phosphate Buffered Saline) to remove trypsin. Efficacy of phosphaplatin compounds were evaluated by subcutaneously implanting human OVCAR-10 and UMSCC-10b xenograft in SCID Hairless OutBred, SHO-Prkdc^scidHr^hr, (Charles River Labs, Wilmington, Mass.) mice, NIH (NIH III: NIHBNX-F; NIHS-Lystbg Foxnlnu Btkxid, 4-week old female, Taconic (Rensselaer, N.Y.) mice.
Female SCID/NIH mice 4-5 weeks old were acclimated for one week before initiation of efficacy trials. Cancer cells were re-suspended in PBS and all mice except for negative control mice were injected subcutaneously with from 1×10^6 cells/0.10 mL to 5×10^6 cells/0.10 mL in PBS. The tumor size was evaluated as a function of time. The mice were examined daily for tumor growth. Tumors were measured using digital calipers. The tumor volume was calculated by the formula (W^2×L)/2, where W is the tumor measurement at the widest point, and L is the tumor dimension at the longest point, where the volume of the tumor in mm^3 is equivalent to the weight in mg.
After approximately 2 weeks of the subcutaneous injection of cancer cells, the tumors that had reached a distinguishable tumor sizes (approximately 100 mm^3 to 200 mm^3), phosphaplatin compounds of desired doses were administered intra-peritoneally. These administrations were done one time on day 1, once on day 3, and once on day 5.
Each group of xenograft mice was treated with phosphaplatin compounds, and a matched set was treated with vehicle/placebo (PBS solution) and mock injection (as a control for stress response). […] The xenograft SCID mice/NIH were monitored every day for any adverse events in their health by measuring weight loss/gain and food consumption. Measurements were stopped and the study was ended when the tumor size exceeded 3000 mm^3. […]

With `O=P1(O)OP(=O)(O)[O][Pt]2([NH][C@@H]3CCCC[C@H]3[NH]2)[O]1` (stereo partly drawn) [(1R,2R)-pyrodach-2, ((1R,2R)-1,2-cyclohexanediamine)(dihydrogenpyrophosphato)platinum (II)], the “stability at neutral pH in aqueous solution” value in data set [1] (dissolved in water, observed by 31P-NMR, seven days) is reported as “remarkable stability”. In addition, the tumor response entry in data set [2] (40 mg/kg qodx3, first ten days of treatment) was “tumor regression”; in data set [3] it was “tumor regression”.

For `O=P1(O)OP(=O)(O)[O][Pt]2([OH])([OH])([NH][C@@H]3CCCC[C@H]3[NH]2)[O]1` [(1R,2R)-pyrodach-4, ((1R,2R)-1,2-cyclohexanediamine)-trans-dihydroxo(dihydrogenpyrophosphato)platinum (IV)], in data set [1], the “stability at neutral pH in aqueous solution” value is reported as “remarkable stability”. Further, the tumor response result in data set [2] (10 mg/kg qodx3, first ten days of treatment) is “tumor regression”; in data set [3], “tumor regression”.
